{"source": "patent US6979682B2", "about": "“Platelet-activating factor antagonist inhibition of angiogenesis and tumor growth induced by basic fibroblast” (Board of Supervisors of Louisiana State University and …, priority 2001, dated 2005)", "key": {"[1]": {"tested_on": "human 201T lung adenocarcinoma cells (orthotopic xenografts)", "test": "orthotopic 201T xenografts in nude mice, mediastinal block weight", "type": "in vivo, NCr athymic nude mice", "conditions": "60 mg/kg at days 2, 4, 6, 8, 10, 12, sacrifice day 56", "procedure": "(§1) Pathogen-free 4 to 6 week-old male NCr athymic nude mice (Taconic, Germantown, N.Y.) were housed in sterilized, filter-topped cages kept in laminar flow isolators (Forma Scientific, Marietta, Ohio), and fed autoclaved food and water ad libitum. Four animals were housed in each cage. Mice were acclimated to the vivarium for one week prior to their use in study protocols. All procedures involving the mice were performed under sterile conditions in a laminar flow hood (Forma Scientific). All studies were approved by the institutional animal care and use committee.\nHuman PC-3 prostate cancer cells (2×10^6 cells; American Type Culture Collection CRL-1435) were inoculated subcutanteously into the flanks of nude mice in 0.1 ml HBSS (Hank's balanced salt solution) (Life Technologies). For implantation of orthotopic 201T cells, animals were fully anesthetized in a Harvard small animal anesthesia chamber using nebulized Metafane (Pitman Moore, Inc., Washington Crossing, N.J.). […] The needle was advanced through the chest wall into the lung tissue, and the tumor cell inoculum of 2×10^6 cells was then dispersed in a final volume of 0.1 ml HBSS/Matrigel (1:1 ratio). […] For tumors implanted subcutaneously, tumors were measured in a blind fashion with dial calipers, and the volume was calculated using the formula ½*π(W*L*H). […]"}, "[2]": {"tested_on": "human prostatic carcinoma cells, PC-3 (subcutaneous xenografts)", "test": "subcutaneous PC-3 xenografts in nude mice, tumor volume", "type": "in vivo, NCr athymic nude mice", "procedure": "as §1\nHuman PC-3 prostate cancer cells (2×10^6 cells; American Type Culture Collection CRL-1435) were inoculated subcutanteously into the flanks of nude mice in 0.1 ml HBSS (Hank's balanced salt solution) (Life Technologies). For implantation of orthotopic 201T cells, animals were fully anesthetized in a Harvard small animal anesthesia chamber using nebulized Metafane (Pitman Moore, Inc., Washington Crossing, N.J.). […] The needle was advanced through the chest wall into the lung tissue, and the tumor cell inoculum of 2×10^6 cells was then dispersed in a final volume of 0.1 ml HBSS/Matrigel (1:1 ratio). Animals were allowed to recover from anesthesia for approximately 10 min under heat lamps to maintain body temperature. The orthotopic implantation technique is further described in Hamide et al., 1997. For tumors implanted subcutaneously, tumors were measured in a blind fashion with dial calipers, and the volume was calculated using the formula ½*π(W*L*H).\nPotential anti-angiogenic and anti-tumor effects of the PAF antagonist BN-50730 were tested on human tumor xenografts in the NCr athymic nude mice. Thirty mice were implanted with subcutaneous human prostatic carcinoma cells, PC-3, at day 0, and were randomized into three groups. Mice were treated either with a placebo, 30 mg/kg BN-50730, or 60 mg/kg BN-50730 at days 2, 4, 6, 8, 10, and 12 as shown in the schedule of FIG. 2b. Animals were sacrificed at day 13, 17, 21 and 28, and the volumes of the subcutaneous tumors were measured using dial calipers and the formula ½*π(W*L*H) as described in Example 1.\nIn a separate experiment to determine the effects of a high dose of LAU-8080 dissolved in 2-hydroxypropyl-β-cyclodextran (instead of DMSO) on PC-3 xenografts, mice were treated as shown in FIG. 4b. Tumors were implanted subcutaneously at day 0. The mice were then divided into two groups to receive injections of either a placebo or 120 mg/kg LAU-8080 on days 1, 3, 5, 8, 10, and 12. Mice were sacrificed on days 6, 8, 11, 13, 15, 18, 20, 21, and 25; and the volumes of the tumors were measured as described above.\nTumors were implanted at day 0. The tumors were allowed to expand to 100 mm^3 before treatment was initiated as shown in the schedule in FIG. 10b. Tumor measurements were begun on day 9. Treatments of the different groups were on days 13, 15, 17, 20, 22, 24, 27, 29, and 31. Tumor measurements were taken on days 13, 16, 20, 24, 27, 31, 37, and 40."}, "[3]": {"tested_on": "PAF binding sites (microsomal intracellular membranes; synaptosomal plasma membrane)", "conditions": "Marcheselli and Bazan, 1994; cited from earlier work"}, "201T cells": {"tested_on": "201T cells", "test": "in vitro cell growth assay, [3H]thymidine incorporation, 201T", "type": "cell-based, human", "procedure": "The human prostatic carcinoma cell line PC-3 was grown in RPMI 1640 (Life Technologies, Grand Island, […].) supplemented with 10% fetal bovine serum (“FBS”, Life Technologies). The human cell line 201T was established from a poorly differentiated lung adenocarcinoma, as previously described using the method of J. M. Siegfried et al., “Secretion of autocrine growth factors by cultured lung tumors: effects on neoplastic lung epithelial cells,” Lung Cancer, vol. 4, pp. 205–209 (1988). See also J. P. Hamide et al., “Percutaneous implantation of non-small cell lung carcinoma: technique and observations,” Academ. Radiolo., vol. 4, pp. 629–633 (1997). The cell line was grown in a medium conditioned for 48 hours by the cell line A549 (ATCC CCL-185) containing 1% FBS (HyClone Laboratories, Logan, Utah) as previously described in J. M. Siegfried, “Culture of primary lung tumors using medium conditioned by a lung carcinoma cell line,” J. Cell. Biochem., vol. 41, pp. 91–95 (1988). This medium is referred to as CM+1% FBS.\nPC-3 cells were exposed to 0, 0.1, 1, 2.5, 5, and 10 μM BN-50730 in RPMI medium supplemented with 10% FBS and [^3H]thymidine (Amersham Life Science, Arlington Heights, Ill.). 201T cells were exposed to 0, 0.1, 1, 2.5, 5, and 10 μM BN-50730 in CM+1% FBS supplemented with [^3H]thymidine. […] PC-3 and 201T cells were also exposed to 10 μM BN-50730 for 24, 48, 72 and 144 hours, and cell growth assessed as above."}}, "data": [{"smiles": "COc1ccc(NC(=O)N2CCc3c(sc4c3C(c3ccccc3Cl)=NCc3nnc(C)n3-4)C2)cc1", "note": "[BN-50730, tetrahydro-4,7,8,10 methyl-1 (chloro-2 phenyl)-6 (methoxy-4 phenyl-carbomoyl)-9 pyrido [4′,3′-4,5] thieno [3,2-f] triazolo-1,2,4[4,3-α]diazepine-1,4]", "values": [{"measurement": "mediastinal block weight, placebo-treated vs LAU-8080-treated", "setting": "[1]; p=0.011, Student's t-test", "result": "significantly larger in placebo-treated animals"}, {"measurement": "mediastinal weight vs control litter mates without tumor cell implantation", "setting": "[1]; p=0.800, Student's t-test", "result": "the same as for control liter mates"}, {"measurement": "tumor size (volume) of subcutaneous PC-3 xenografts", "setting": "[2]; 30 mg/kg or 60 mg/kg at days 2, 4, 6, 8, 10, 12, measured day 13, 17, 21, 28, vs placebo, p<0.001", "result": "significant dose-dependent reduction in tumor size"}, {"measurement": "tumor volume of subcutaneous PC-3 xenografts, high dose", "setting": "[2]; 120 mg/kg in 2-hydroxypropyl-β-cyclodextran on days 1, 3, 5, 8, 10, 12, vs placebo, p=0.0001, F-test", "result": "significantly smaller tumors"}, {"measurement": "time at which tumors began to increase in size", "setting": "[2]; 120 mg/kg on days 1, 3, 5, 8, 10, 12, PC-3 xenografts", "result": "did not begin to increase in size until after treatment was stopped at day 12"}, {"measurement": "tumor size, BN-50730-treated vs IFN-2a-treated mice", "setting": "[2]; established PC-3 xenografts, 120 mg/kg vs 1,000 U, p=0.089, F-test", "result": "no significant difference"}, {"measurement": "tumor size of established PC-3 xenografts vs control animals", "setting": "[2]; tumors expanded to 100 mm^3 before treatment, treatment days 13-31, 120 mg/kg BN-50730 and/or 1,000 U IFN-2a, p<0.001, F-test", "result": "significantly smaller tumors"}, {"measurement": "displacement of PAF from microsomal membranes", "setting": "[3]", "result": "displace PAF from microsomal membranes"}, {"measurement": "displacement of PAF from the synaptosomal, plasma membrane", "setting": "[3]", "result": "not from the synaptosomal, plasma membrane"}, {"measurement": "201T cell growth, time course: onset of growth inhibition", "setting": "201T cells; 10 μM, six-day time course", "result": "growth inhibition was manifested after 72 hr of exposure"}, {"measurement": "201T cell growth, time course curves treated vs untreated", "setting": "201T cells; 10 μM, up to 144 hr, p=0.081, F-test", "result": "not statistically different"}, {"measurement": "201T cell growth, concentration response", "setting": "201T cells; 0.01-10 μM for four days, p<0.005 at or above 1.0 μM", "result": "concentration-dependent reduction in growth"}]}]}
